Bridge positions count the residues as written; N and C are the ends. Square brackets hold non-standard residues; d marks the D form. Ends that are not written are not given here. Peptide text beside a SMILES is read from it. R8 = C=CCCCCCC[C@@](C)(N)C(=O)O; S5 = C=CCCC[C@](C)(N)C(=O)O
What was measured:
[1] = On-resin ring-closing olefin metathesis (all-hydrocarbon stapling, S5/S5 i,i+4 or R8/S5 i,i+7), first-generation Grubbs catalyst (3 equiv); then Fmoc removal, TFA cleavage, RP-HPLC; conditions: the molecule shown is the open-chain precursor, 25.0 °C, 4.0 h
[2] = Circular dichroism spectroscopy, percent helicity; format: physicochemical; conditions: CD, TFE/water (1:1), 0.1 mg/ml, 20°C
Method: Peptides were dissolved in TFE/water (1:1, v/v, 0.1 mg/ml). CD data were recorded in 10-mm path length, a quartz cell at 20°C. Percent helicity was calculated by the following equation ([Wang et al., 2006]). α=[θ]222/[θ]max×100% [θ]222 is the molar ellipticity of 222 nm; [θ]max = (−44,000 + 250T) (1 − k/n), where k = 4, n is the numbers of amino acids, and T = 20°C.

rabbit red blood cells = conditions: 4% rabbit red blood cells, 1 h, 37°C
Method: Two hundred microliters of 4% rabbit red blood cells in a 96-well plate was added different concentrations of peptides. After 1 h of incubation at 37°C and following centrifugation, the release of hemoglobin was monitored by the absorbance at 450 nm of supernatant. Zero hemolysis was determined without adding any other reagents, and 100% hemolysis was determined in 10% Triton X-100. Hemolysis percentage hemolysis was calculated as: (Apeptide − Ablank)/(ATriton − Ablank) × 100%. All hemolysis determinations were conducted in three repeated experiments ([Deng et al., 2015]).

α-chymotrypsin = α-chymotrypsin (Bos taurus, UniProt P00766); assay: in vitro; conditions: for half-life: α-chymotrypsin (0.5 ng/μl) in PBS buffer
Method: Peptides in DMSO solution (1 mM) was mixed with α-chymotrypsin in PBS buffer (0.5 ng/μl) containing 2 mM CaCl2 and incubated at 37°C. The percentage of peptide was measured by HPLC at 0, 5, 10, 20, 30, and 60 min([Wang et al., 2020]).

U87 = conditions: read-out: IC50 U87; CCK-8, 48 h
Method: (§1) MCF-7, HUH-7, U87, and Nthy-ori 3-1 cell lines were used to test cell viability. All the cell lines were cultured in a humid environment at 37°C with 5% CO2. The anticancer activity of B1 and its derivatives were evaluated by the CCK-8 reagent. All peptides tested were dissolved in DMSO and finally added to each well in 1‰ volume. The cells were seeded in a 96-well plate at a number of 5 × 10^3 cells per well. After overnight incubation, they were administered with different concentrations of peptides. Ten percent CCK-8 solution without FBS was added to each well after 48 h. After incubation at 37°C for 30 min, the optical density (OD) at 450 nm was recorded with a microplate reader ([Deng et al., 2015]).

MCF-7 = conditions: read-out: IC50 MCF-7; CCK-8, 48 h
Method: as §1

HUH-7 = conditions: read-out: IC50 HUH-7; CCK-8, 48 h
Method: as §1

[3] = 21-membered ring, 1,2-dichloroethane (dry)

Compound | ring closure, overall yield ([1]; 33-membered ring, 1,2-dichloroethane (dry)) [%] | ring closure, overall yield [1, 3] [%] | Helicity (%) [2] [%] | HC50, half hemolysis concentration (rabbit red blood cells) [µM] | half-life (α-chymotrypsin) [min] | Degradation during protease exposure (α-chymotrypsin; α-chymotrypsin, 1 h) | IC50 (U87) [µM] | IC50 (MCF-7) [µM] | IC50 (HUH-7) [µM]
C=CCCCCCC[C@@](C)(NC(=O)[C@H](CCCCNC(=O)OC(C)(C)C)NC(=O)[C@H](Cc1ccccc1)NC(=O)[C@H](CCCNC(=N)NS(=O)(=O)c1c(C)c(C)c2c(c1C)CC(C)(C)O2)NC(=O)[C@H](CCCCNC(=O)OC(C)(C)C)NC(=O)[C@@H](NC(=O)OCC1c2ccccc2-c2ccccc21)C(C)C)C(=O)N[C@@H](Cc1ccccc1)C(=O)N[C@@H](Cc1ccccc1)C(=O)N[C@@H](CCCNC(=N)NS(=O)(=O)c1c(C)c(C)c2c(c1C)CC(C)(C)O2)C(=O)N[C@@H](CCCCNC(=O)OC(C)(C)C)C(=O)N[C@@H](CC(C)C)C(=O)N[C@@H](CCCCNC(=O)OC(C)(C)C)C(=O)N[C@@](C)(CCCC=C)C(=O)N[C@@H](CC(C)C)C(=O)N[C@H](C(N)=O)C(C)C | 62 |  |  |  |  |  |  |  | 
C=CCCC[C@](C)(NC(=O)[C@H](Cc1ccccc1)NC(=O)[C@H](Cc1ccccc1)NC(=O)[C@H](CCCCNC(=O)OC(C)(C)C)NC(=O)[C@](C)(CCCC=C)NC(=O)[C@H](Cc1ccccc1)NC(=O)[C@H](CCCNC(=N)NS(=O)(=O)c1c(C)c(C)c2c(c1C)CC(C)(C)O2)NC(=O)[C@H](CCCCNC(=O)OC(C)(C)C)NC(=O)[C@@H](NC(=O)OCC1c2ccccc2-c2ccccc21)C(C)C)C(=O)N[C@@H](CCCCNC(=O)OC(C)(C)C)C(=O)N[C@@H](CC(C)C)C(=O)N[C@@H](CCCCNC(=O)OC(C)(C)C)C(=O)N[C@@H](CCCCNC(=O)OC(C)(C)C)C(=O)N[C@@H](CC(C)C)C(=O)N[C@H](C(N)=O)C(C)C |  | 64 |  |  |  |  |  |  | 
C=CCCC[C@](C)(NC(=O)[C@H](Cc1ccccc1)NC(=O)[C@H](Cc1ccccc1)NC(=O)[C@H](CCCCNC(=O)OC(C)(C)C)NC(=O)[C@H](CCCCNC(=O)OC(C)(C)C)NC(=O)[C@H](Cc1ccccc1)NC(=O)[C@H](CCCNC(=N)NS(=O)(=O)c1c(C)c(C)c2c(c1C)CC(C)(C)O2)NC(=O)[C@H](CCCCNC(=O)OC(C)(C)C)NC(=O)[C@@H](NC(=O)OCC1c2ccccc2-c2ccccc21)C(C)C)C(=O)N[C@@H](CCCCNC(=O)OC(C)(C)C)C(=O)N[C@@H](CC(C)C)C(=O)N[C@@H](CCCCNC(=O)OC(C)(C)C)C(=O)N[C@@](C)(CCCC=C)C(=O)N[C@@H](CC(C)C)C(=O)N[C@H](C(N)=O)C(C)C |  | 68 |  |  |  |  |  |  | 
VKRFKKFFRKLKKSV-NH2 [B1, VKRFKKFFRKLKKSV-NH2, reference compound] |  |  | 8.9 | >80 | 8.3 | completely degraded | > 50 | > 50 | > 50
CC(C)C[C@H](NC(=O)[C@H](CCCCN)NC(=O)[C@]1(C)CCCC=CCCC[C@](C)(NC(=O)[C@H](Cc2ccccc2)NC(=O)[C@H](CCCNC(=N)N)NC(=O)[C@H](CCCCN)NC(=O)[C@@H](N)C(C)C)C(=O)N[C@@H](CCCCN)C(=O)N[C@@H](Cc2ccccc2)C(=O)N[C@@H](Cc2ccccc2)C(=O)N1)C(=O)N[C@@H](CCCCN)C(=O)N[C@@H](CCCCN)C(=O)N[C@@H](CC(C)C)C(=O)N[C@H](C(N)=O)C(C)C [B1-L-2, VKRFS5KFFS5KLKKLV-NH2] (H-VKRF[S5]KFF[S5]KLKKLV-NH2; staple 5-9; N-terminus assumed) |  |  | 35.5 | >80 | > 60 |  | 8.86 ± 1.43 | 6.59 ± 0.42 | 6.18 ± 0.63
CC(C)C[C@H](NC(=O)[C@H](CCCCN)NC(=O)[C@]1(C)CCCC=CCCCCCC[C@@](C)(NC(=O)[C@H](Cc2ccccc2)NC(=O)[C@H](CCCNC(=N)N)NC(=O)[C@H](CCCCN)NC(=O)[C@@H](N)C(C)C)C(=O)N[C@@H](CCCCN)C(=O)N[C@@H](Cc2ccccc2)C(=O)N[C@@H](Cc2ccccc2)C(=O)N[C@@H](CCCNC(=N)N)C(=O)N[C@@H](CCCCN)C(=O)N[C@@H](CC(C)C)C(=O)N1)C(=O)N[C@H](C(N)=O)C(C)C [B1-L-6, VKRFR8KFFRKLS5KLV-NH2] (H-VKRF[R8]KFFRKL[S5]KLV-NH2; staple 5-12; N-terminus assumed) |  |  | 39.8 | >80 | 55.3 |  | 4.58 ± 0.93 | 5.15 ± 1.04 | 5.89 ± 0.43

Reference: article PMC9021566, “Design, Synthesis, and Antitumor Activity Study of All-Hydrocarbon-Stapled B1-Leu Peptides” (Frontiers in Chemistry, 2022)
